Series [1] relates to Key Broadleaf Weed and Crop Species. As to the kind of experiment: Post-emergent Test II herbicidal activity (Table 15). The series is classed as in vivo. To be noted: post-emergence, 336 h, 14 d; for pest or weed control at 35 g/ha: 35 g ai/ha; for pest or weed control at 70 g/ha: 70 g ai/ha; for pest or weed control at 140 g/ha: 140 g ai/ha. Here is the method: (§1) Post-emergent Test II: Seeds or nutlets of the desired test plant species were planted in Sun Gro Metro-Mix® 360 planting mixture, which typically has a pH of 6.0 to 6.8 and an organic matter content of about 30 percent, in plastic pots with a surface area of 64 square centimeters. When required to ensure good germination and healthy plants, a fungicide treatment and/or other chemical or physical treatment was applied. The plants were grown for 7-21 d in a greenhouse with an approximate 15 h photoperiod which was maintained at about 23-29° C. during the day and 22-28° C. during the night. Nutrients and water were added on a regular basis and supplemental lighting was provided with overhead metal halide 1000-Watt lamps as necessary. The plants were employed for testing when they reached the first or second true leaf stage.
(§2) A weighed amount, determined by the highest rate to be tested, of each test compound was placed in a 25 mL glass vial and was dissolved in 4 mL of a 97:3 v/v mixture of acetone and DMSO to obtain concentrated stock solutions. […] The concentrated stock solutions obtained were diluted with 20 mL of an aqueous mixture containing acetone, water, isopropyl alcohol, DMSO, Atplus 411F crop oil concentrate, and Triton® X-155 surfactant in a 48.5:39:10:1.5:1.0:0.02 v/v ratio to obtain spray solutions containing the highest application rates. Additional application rates were obtained by serial dilution of 12 mL of the high rate solution into a solution containing 2 mL of 97:3 v/v mixture of acetone and DMSO and 10 mL of an aqueous mixture containing acetone, water, isopropyl alcohol, DMSO, Atplus 411F crop oil concentrate, and Triton X-155 surfactant in a 48.5:39:10:1.5:1.0:0.02 v/v ratio to obtain 1/2×, 1/4×, 1/8× and 1/16× rates of the high rate. Compound requirements are based upon a 12 mL application volume at a rate of 187 liters per hectare (L/ha). Formulated compounds were applied to the plant material with an overhead Mandel track sprayer equipped with 8002E nozzles calibrated to deliver 187 L/ha over an application area of 0.503 square meters at a spray height of 18 inches (43 cm) above the average plant canopy height. Control plants were sprayed in the same manner with the solvent blank.
(§3) The treated plants and control plants were placed in a greenhouse as described above and watered by subirrigation to prevent wash-off of the test compounds. After 14 d, the condition of the test plants as compared with that of the untreated plants was determined visually and scored on a scale of 0 to 100 percent where 0 corresponds to no injury and 100 corresponds to complete kill.

Series [2] relates to Key Grass and Sedge Weeds as well as Grass Crops. As to the kind of experiment: Post-emergent Test II herbicidal activity (Table 16). The series is classed as in vivo. The note with it: post-emergence, 336 h, 14 d; for pest or weed control at 35 g/ha: 35 g ai/ha; for pest or weed control at 70 g/ha: 70 g ai/ha; for pest or weed control at 140 g/ha: 140 g ai/ha. Here is the method: as §1, §2, §3

Where [3] appears, read: Abutilon theophrasti, velvetleaf (Abutilon theophrasti), read-out: Visual Growth Reduction (%) 14 Days After Application, ABUTH.
The mark [4] stands for this setting: Amaranthus retroflexus, redroot pigweed (Amaranthus retroflexus), read-out: Visual Growth Reduction (%) 14 Days After Application, AMARE.
The mark [5] stands for this setting: Brassica napus, oilseed rape, canola (Brassica napus), read-out: Visual Growth Reduction (%) 14 Days After Application, BRSNN.
The mark [6] stands for this setting: Chenopodium album, lambsquarters (Chenopodium album), read-out: Visual Growth Reduction (%) 14 Days After Application, CHEAL.
Setting [7] is: Euphorbia heterophylla, wild poinsettia (Euphorbia heterophylla), read-out: Visual Growth Reduction (%) 14 Days After Application, EPHHL.
Setting [8] is: Helianthus annuus, sunflower (Helianthus annuus), read-out: Visual Growth Reduction (%) 14 Days After Application, HELAN.
[9] abbreviates: Cyperus esculentus, yellow nutsedge (Cyperus esculentus), read-out: Visual Growth Reduction (%) 14 Days After Application, CYPES.
Setting [10] is: Echinochloa crus-galli, barnyardgrass (Echinochloa crus-galli), read-out: Visual Growth Reduction (%) 14 Days After Application, ECHCG.
Setting [11] is: Oryza sativa, rice (Oryza sativa), read-out: Visual Growth Reduction (%) 14 Days After Application, ORYSA.
Where [12] appears, read: Triticum aestivum, wheat, spring (Triticum aestivum), read-out: Visual Growth Reduction (%) 14 Days After Application, TRZAS.
[13] abbreviates: Zea mays, maize, corn (Zea mays), read-out: Visual Growth Reduction (%) 14 Days After Application, ZEAMX.

Molecules are shown by their SMILES. Read-outs that look alike come from different tables or passages of the source.

3 compounds from patent US20170050957A1, “4-AMINO-6-(HETEROCYCLIC)PICOLINATES AND 6-AMINO-2-(HETEROCYCLIC)PYRIMIDINE-4-CARBOXYLATES AND THEIR USE AS HERBICIDES” (Dow AgroSciences LLC, priority 2013, published 2017) can be followed below.

`Nc1c(Cl)c(C(=O)O)nc(-c2ccc3cc[nH]c3c2)c1Cl` [Compound 1.06]: the melting point (usually the temperature of the solid-liquid transition) fell in the range of 160 to 164 °C. Besides, in series [1] (setting [3]), the pest or weed control at 35 g/ha fell in the range of 0 to 29%, the pest or weed control at 70 g/ha is 0 to 29% and the pest or weed control at 140 g/ha was 0 to 29%. In series [1] (setting [4]), the pest or weed control at 35 g/ha was 95 to 100%, the pest or weed control at 70 g/ha lay within 85 to 94% and the pest or weed control at 140 g/ha fell in the range of 75 to 84%. Moreover, in series [1] (setting [5]), the pest or weed control at 35 g/ha fell in the range of 75 to 84%, the pest or weed control at 70 g/ha lay in the range of 85 to 94% and the pest or weed control at 140 g/ha is 85 to 94%. In series [1] (setting [6]), the pest or weed control at 35 g/ha lay within 85 to 94%, the pest or weed control at 70 g/ha lay in the range of 95 to 100% and the pest or weed control at 140 g/ha was in the range of 95 to 100%. Also, in series [1] (setting [7]), the pest or weed control at 35 g/ha lay within 0 to 29%, the pest or weed control at 70 g/ha lay in the range of 0 to 29% and the pest or weed control at 140 g/ha was in the range of 0 to 29%. For the same compound, in series [1] (setting [8]), the pest or weed control at 35 g/ha was in the range of 0 to 29%, the pest or weed control at 70 g/ha was 0 to 29% and the pest or weed control at 140 g/ha lay within 0 to 29%.

Turning to `COC(=O)c1nc(-c2ccc3cc[nH]c3c2)cc(N)c1Cl` [Compound 1.21], the melting point lay in the range of 83 to 85 °C. Besides, in series [1] (setting [3]), the pest or weed control at 35 g/ha was in the range of 60 to 74% and the pest or weed control at 70 g/ha lay within 60 to 74%. Moreover, in series [1] (setting [4]), the pest or weed control at 35 g/ha is 0 to 29% and the pest or weed control at 70 g/ha is 0 to 29%. In addition, in series [1] (setting [5]), the pest or weed control at 35 g/ha fell in the range of 0 to 29% and the pest or weed control at 70 g/ha fell in the range of 0 to 29%. In addition, in series [1] (setting [6]), the pest or weed control at 35 g/ha lay in the range of 45 to 59% and the pest or weed control at 70 g/ha was in the range of 85 to 94%. In series [1] (setting [7]), the pest or weed control at 35 g/ha was 75 to 84% and the pest or weed control at 70 g/ha was in the range of 85 to 94%. Also, in series [1] (setting [8]), the pest or weed control at 35 g/ha lay within 45 to 59% and the pest or weed control at 70 g/ha is 75 to 84%. In addition, in series [2] (setting [9]), the pest or weed control at 35 g/ha fell in the range of 0 to 29%, the pest or weed control at 70 g/ha lay within 0 to 29% and the pest or weed control at 140 g/ha fell in the range of 0 to 29%. In addition, in series [2] (setting [10]), the pest or weed control at 35 g/ha lay in the range of 0 to 29% and the pest or weed control at 70 g/ha is 0 to 29%. In addition, in series [2] (setting [11]), the pest or weed control at 35 g/ha lay within 0 to 29%, the pest or weed control at 70 g/ha was 0 to 29% and the pest or weed control at 140 g/ha lay in the range of 0 to 29%. Further, the pest or weed control at 140 g/ha in series [2] (Setaria faberi, giant foxtail (Setaria faberi), read-out: Visual Growth Reduction (%) 14 Days After Application, SETFA) lay in the range of 0 to 29%. In series [2] (setting [12]), the pest or weed control at 35 g/ha lay in the range of 0 to 29%, the pest or weed control at 70 g/ha is 0 to 29% and the pest or weed control at 140 g/ha lay within 0 to 29%. In addition, in series [2] (setting [13]), the pest or weed control at 35 g/ha is 0 to 29%, the pest or weed control at 70 g/ha fell in the range of 0 to 29% and the pest or weed control at 140 g/ha fell in the range of 0 to 29%.

`COC(=O)c1nc(-c2ccc(Cl)c3cc[nH]c23)cc(N)c1Cl` [Compound 1.49] yielded a melting point of 186 to 188 °C. In series [1] (setting [3]), the pest or weed control at 35 g/ha was in the range of 85 to 94%, the pest or weed control at 70 g/ha lay in the range of 85 to 94% and the pest or weed control at 140 g/ha lay within 85 to 94%. In series [1] (setting [4]), the pest or weed control at 35 g/ha was in the range of 0 to 29%, the pest or weed control at 70 g/ha was in the range of 30 to 44% and the pest or weed control at 140 g/ha was 0 to 29%. Also, in series [1] (setting [5]), the pest or weed control at 35 g/ha lay in the range of 0 to 29%, the pest or weed control at 70 g/ha was in the range of 0 to 29% and the pest or weed control at 140 g/ha was 0 to 29%. For the same compound, in series [1] (setting [6]), the pest or weed control at 35 g/ha was 85 to 94%, the pest or weed control at 70 g/ha lay within 85 to 94% and the pest or weed control at 140 g/ha lay in the range of 95 to 100%. In addition, in series [1] (setting [7]), the pest or weed control at 35 g/ha is 0 to 29%, the pest or weed control at 70 g/ha fell in the range of 0 to 29% and the pest or weed control at 140 g/ha lay in the range of 0 to 29%. Further, in series [1] (setting [8]), the pest or weed control at 35 g/ha was in the range of 0 to 29%, the pest or weed control at 70 g/ha lay in the range of 0 to 29% and the pest or weed control at 140 g/ha is 45 to 59%.
